The values below come from ChEMBL document CHEMBL2417420, “Autotaxin inhibition: development and application of computational tools to identify site-selective lead compounds” (Bioorg Med Chem, 2013).

For orientation: inhibition means how much of the control response was suppressed.

Peptide text beside a SMILES is read from it. * marks the point of attachment. Cbz = O=C(OCc1ccccc1)*

The test concerns the target Autotaxin (Homo sapiens, UniProt Q13822). The experiment in a line: Inhibition of C-terminal FLAG-tagged human recombinant autotaxin using synthetic substrate FS-3 at 10 uM measured every 2 mins by FRET assay relative to control.
Take `COc1cc(/C=C2/SC(=S)N(C3CCCCC3)C2=O)ccc1OCc1ccccc1Cl`: the inhibition was 0%.

Consider `O=C1/C(=C/c2cccc(Oc3ccccc3)c2)SC(=S)N1Cc1ccccc1`, for which the inhibition was found to be 20%. Then `COc1cccc(/C=C2/S/C(=N/c3ccccc3)N(Cc3ccccc3)C2=O)c1O`, with 0%; and `COc1cc(/C=N/NC(=O)c2ccc(CN3C(=O)c4cccc5cccc3c45)cc2)cc(Br)c1O`, with 10%; and `N#CC1=C(SCC(=O)Nc2ccc(Br)cc2)NC(=O)CC1c1cccc(O)c1` (stereo not given), with 30%. In the case of `COCCNS(=O)(=O)c1ccc2c(c1)NC(=O)C(Cc1ccccc1)N2C(=O)CNCc1ccc(OC)cc1` (stereo not given), the inhibition amounted to 30%. Consider `COc1cccc(C2CC(=O)NC(SCC(=O)Nc3ccccc3C)=C2C#N)c1OC` (stereo not given), for which the inhibition is 30%. With `CCCCCCOc1ccc(C(=O)COC(=O)c2ccccc2-c2ccccc2C(=O)COC(=O)c2ccc(OCCCCCC)cc2)cc1`, the inhibition worked out at 0%. Then `COc1ccccc1/C=C1\SC(=O)N(CCC(=O)N2c3ccccc3Sc3ccccc32)C1=O`, with 20%; and `COc1cccc(CC(=O)NCCNc2nc3cc4c(cc3cc2C#N)OCO4)c1`, with 20%; and `COc1ccc(/C=N/NC(=O)c2cc(O)c(O)c(O)c2)cc1Cn1nc(C)c(Br)c1C`, with 10%. For the molecule `N#CC1CCCC(NC(=O)c2cccc(S(=O)(=O)Nc3ccc(Br)cc3)c2)C1` (stereo not given), the inhibition came to 0%. Consider `CC(CC(=O)N1CCCN(c2ccc(C(=O)NC(C(N)=O)C(C)O)cn2)CC1)c1ccccc1` (stereo not given), for which the inhibition came to 0%.

Take `COc1ccc(/C=c2/sc3n(c2=O)NC2(c4ccccc4)N(C)C(=O)N(C)C2(c2ccccc2)N=3)cc1O` (stereo not given): the inhibition was determined as 10%.

On to `CC(O)C(NC(=O)c1ccc(N2CCN(C(=O)Cc3ccc(O)cc3)CC2)nc1)C(N)=O` (stereo not given), for which the inhibition turned out to be 10%.

Turning to `CC(O)C(NC(=O)c1cccnc1N1CCC(CCCC2CCN(C(=O)CCC(=O)c3ccccc3)CC2)CC1)C(N)=O` (stereo not given), the inhibition stood at 30%.

For the molecule `COc1ccccc1C(COc1ccccc1C)NCCC(=O)N(CC(N)=O)Cc1ccc(C)cc1` (stereo not given), the inhibition turned out to be 20%.

For `COc1ccc(-c2cc(C(F)(F)F)n3nc(C(=O)Nc4cc(Sc5ccc(Br)cc5)cc([N+](=O)[O-])c4)c(Cl)c3n2)cc1OC`, the inhibition turned out to be 10%. Take `COc1cc(C2CC(=O)NC(SCC(=O)Nc3ccccc3C)=C2C#N)cc(Br)c1O` (stereo not given): the inhibition is 30%.

In the case of `CCOc1cc(/C=C2/S/C(=N/c3ccccc3)N(c3ccccc3)C2=O)ccc1OCc1ccccc1`, the inhibition amounted to 10%.

Regarding `O=C(O)CN1C(=O)/C(=C/c2ccc(-c3ccc(Cl)cc3)o2)S/C1=N\c1ccccc1`, the inhibition was 20%. Then `CC(O)C(NC(=O)c1ccc(N2CCCN(C(=O)CCC(=O)c3ccccc3)CC2)nc1)C(N)=O` (stereo not given), with 20%; and `CCCCCC(C)(C)c1ccc(Oc2ccc(NC(=O)c3cc(/N=N/c4cccc(OC)c4)c4ccccc4c3O)cc2)cc1`, with 10%.

On to `COc1cc(C(=O)NCCNc2nc3cc4c(cc3cc2C#N)OCO4)cc(OC)c1OC`, for which the inhibition is 10%. Then `O=C(O)CN1C(=O)/C(=C/c2cccc(Oc3ccccc3)c2)S/C1=N\c1ccccc1`, with 0%. On to `O=C(NC(S)Nc1ccc2oc(-c3ccc(-c4ccccc4)cc3)nc2c1)c1ccc([N+](=O)[O-])cc1` (stereo not given), for which the inhibition came to 10%. With `COc1ccc(-c2cc(C(=O)N/N=C/c3cc(OC)c(O)c(OC)c3)[nH]n2)cc1OC`, the inhibition was determined as 10%. As to `CC(CNC(=O)c1cc(-c2ccoc2)nc2ccccc12)C(=O)NCCNc1ccccc1` (stereo not given), the inhibition turned out to be 10%.

`CC(C)(C)c1cc(/C=C/C(=O)Nc2ccc(CNC(=O)C(C#N)=C3CCCCC3)cc2)cc(C(C)(C)C)c1O`: the inhibition was 20%. Then `O=C(NCc1ccc(NC(=O)c2cn(Cc3ccccc3)c3ccccc23)cc1)c1cnc2cc(C(F)(F)F)ccc2c1O`, with 0%; and `CC(CNC(=O)CCCn1ncn2c(cc3occc32)c1=O)c1ccccc1` (stereo not given), with 10%; and `CCCCOc1ccc(-c2nc3cc(C(=O)NCCOCCO)ccc3n2Cc2ccco2)cc1`, with 10%. Take `CC[C@@H]1CN2CCc3cc(OC)c(OC)cc3[C@@H]2C[C@@H]1C[C@@H]1c2cc(OC)c(OC)cc2CCN1C(=O)COCC(=O)N1CCc2cc(OC)c(OC)cc2[C@@H]1C[C@H]1C[C@H]2c3cc(OC)c(OC)cc3CCN2C[C@@H]1CC`: the inhibition came out at 0%. Then `CCn1c2ccccc2c2cc(/C=C3\SC(=S)N([C@H](Cc4ccc(O)cc4)C(=O)O)C3=O)ccc21`, with 0%; and `Cc1ccc2[nH]c3nc(SCC(=O)NCc4ccc5c(c4)OCO5)nnc3c2c1`, with 10%. Then `CC(c1cc2ccccc2o1)N1CCN(C(=O)CCSc2ccc3ccccc3c2)CC1` (stereo not given), with 20%; and `COCCCn1c(CN2CCN(c3ccccc3F)CC2)nc2cc(C(=O)NCC(O)CO)ccc21` (stereo not given), with 10%; and `O=C(Cn1c(=O)sc2ccccc21)OCc1cccc(Oc2ccccc2)c1`, with 0%.

For `COc1cc(C2CC(=O)NC(SCC(N)=O)=C2C#N)ccc1O` (stereo not given), the inhibition came to 0%. As for `CCc1nc2ccc(C(=O)NCCc3c[nH]c4ccccc34)cn2c1N(C)C(=O)C1CCCCC1`, the figure is 0%; as for `CCC(C)C(NC(=O)OCc1ccccc1)C(=O)NC(Cc1ccc(O)cc1)C(N)=O` (stereo not drawn) (Cbz-Ile-Tyr-NH2; configuration not given here), 0%; as for `CC1CN(c2ccc(C(=O)NC(Cc3ccc(O)cc3)C(N)=O)cn2)CCN1C(=O)C(N)Cc1ccccc1` (stereo not given), 10%. Consider `O=C(O)c1cccc(/N=C2\S/C(=C\c3ccc(-c4cccc(Cl)c4)o3)C(=O)N2Cc2ccccc2)c1`, for which the inhibition is 0%. As for `CC(=O)N1c2ccc(NC(=O)c3ccc(Cl)cc3Cl)cc2C2(c3ccccc3)N(C(C)=O)c3ccc(NC(=O)c4ccc(Cl)cc4Cl)cc3C12c1ccccc1` (stereo not given), the figure is 10%; as for `COc1cc([C@@H]2C(C(=O)c3cccs3)=C(O)C(=O)N2CCc2ccccc2)cc(Br)c1O`, 20%. As for `COc1cccc(CCNC(=O)c2ccc3c(c2)nc(-c2cc(OC)cc(OC)c2)n3CCc2ccc(OC)c(OC)c2)c1`, the figure is 20%.

For the molecule `O=C1Nc2ccc([N+](=O)[O-])cc2/C1=N/NC(=O)c1ccc(C(=O)N/N=C2\C(=O)Nc3ccc([N+](=O)[O-])cc32)cc1`, the inhibition was determined as 10%. Take `COc1ccc(OC)c(NC(=S)N2CCn3cccc3C2c2ccc(OC)c(OC)c2)c1` (stereo not given): the inhibition turned out to be 30%. As for `CCOc1cc(/C=C2/NC(=O)N(Cc3ccccc3F)C2=O)cc(Br)c1OCc1ccc2ccccc2c1`, the figure is 10%; as for `CC(C)Cc1ccc(C(C)C(=O)N2CCN(c3ncccc3C(=O)NC(C(N)=O)C(C)O)CC2)cc1` (stereo not given), 20%; as for `CC(O)C(NC(=O)c1cccnc1N1CCN(C(=O)Cc2ccc(-c3ccccc3)cc2)CC1)C(N)=O` (stereo not given), 20%. As for `CCOc1cc(CC2SC(N3CCN(C4=NC(=O)C(Cc5ccc(O)c(OCC)c5)S4)CC3)=NC2=O)ccc1O` (stereo not given), the figure is 30%; as for `C=CCOC(=O)C1=C(C)NC(SCC(=O)Nc2cccc(Cl)c2)=C(C#N)C1c1ccc(O)c(OC)c1` (stereo not given), 30%. As for `CCCCCCCCCCCCCCCCS(=O)(=O)c1ccc(S(=O)(=O)N/N=c2\sc3ccc(S(=O)(=O)O)cc3n2C)cc1C(=O)O`, the figure is 20%. As to `COc1cccc(Cc2nc3cc(C(=O)NCC(O)CO)ccc3n2CCc2ccccc2F)c1` (stereo not given), the inhibition turned out to be 10%.
